# Measurements from ChEMBL document CHEMBL1201862, “PubChem BioAssay data set” (2004).
#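 Cultured in 96-well plates, cells were exposed to test compound for 48 hours across five concentrations. GI50: concentration for 50% inhibition of growth.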 Calls of active or inactive are those of the source. No stated cut-off is given here; in the data, active = GI50 up to about 1.1 µM and inactive = higher.
# Assays:
# Assay in all cases: NCI anticancer screen, dose series, 48 h
# [1] = test system: LXFL 529
# [2] = test system: SNB-78
# [3] = test system: DLD-1
# [4] = test system: HOP-18
# [5] = test system: DMS-114
# [6] = test system: M19-MEL
# [7] = test system: XF498
# [8] = test system: KM-20L2
# [9] = test system: RXF 631
SMILES,GI50 [1],GI50 [2],GI50 [3],GI50 [4],GI50 [5],GI50 [6],GI50 [7],GI50 [8],GI50 [9]
C/C(CC(=O)Nc1ccc(Cl)c(Cl)c1)=N/NC(=O)C[N+](C)(C)C,> 100 µM (inactive),> 100 µM (inactive),29.2 µM (inactive),> 100 µM (inactive),21.5 µM (inactive),> 100 µM (inactive),> 100 µM (inactive),> 100 µM (inactive),
CC1=C(C(=O)CC(=O)C(=O)NC2C3CC4CC(C3)CC2C4)Sc2ccccc2N1 (configuration not stated),> 100 µM (inactive),> 100 µM (inactive),> 100 µM (inactive),86.1 µM (inactive),> 31.6 µM (inactive),> 100 µM (inactive),> 100 µM (inactive),> 100 µM (inactive),
COc1cc(C2c3cc4c(cc3[C@@H](OCCN)[C@H]3COC(=O)C23)OCO4)cc(OC)c1O (some centres not stated),0.776 µM (active),3.52 µM (inactive),1.32 µM (inactive),1.77 µM (inactive),0.0295 µM (active),0.196 µM (active),< 0.0347 µM (active),0.543 µM (active),
CCCCCCCCCCCCCC(=O)OC1C(CO)OC(=O)C1O (configuration not stated),> 100 µM (inactive),> 100 µM (inactive),> 100 µM (inactive),> 100 µM (inactive),> 100 µM (inactive),> 100 µM (inactive),> 100 µM (inactive),> 100 µM (inactive),
COc1ccc(OC2(c3cc(OC)ccc3OC)OC(=O)c3ccccc32)cc1 (configuration not stated),> 100 µM (inactive),> 100 µM (inactive),> 100 µM (inactive),> 100 µM (inactive),> 100 µM (inactive),> 100 µM (inactive),,> 100 µM (inactive),> 100 µM (inactive)
Cc1noc2cccc(OCc3ccccc3)c12,49 µM (inactive),80.5 µM (inactive),64.9 µM (inactive),> 100 µM (inactive),29 µM (inactive),60.1 µM (inactive),56.9 µM (inactive),65.5 µM (inactive),85.7 µM (inactive)
CCN(CC)C(=O)CC12CCCCC1=Nc1ccccc12 (configuration not stated),> 100 µM (inactive),> 100 µM (inactive),> 100 µM (inactive),> 100 µM (inactive),,> 100 µM (inactive),> 100 µM (inactive),> 100 µM (inactive),> 100 µM (inactive)
COc1cc([C@H]2c3cc4c(cc3[C@H](NCc3ccc([N+](=O)[O-])cc3)C3COC(=O)[C@H]32)OCO4)cc(OC)c1O (some centres not stated),5.07 µM (inactive),5.94 µM (inactive),2.7 µM (inactive),,2.62 µM (inactive),3.85 µM (inactive),3.32 µM (inactive),2.48 µM (inactive),
CC1=C2C(=CC(C)(C)[C@@H]2O)C(=O)[C@](C)(O)C12CC2 [ILLUDIN M],0.022 µM (active),,0.0138 µM (active),0.0313 µM (active),0.0251 µM (active),0.0246 µM (active),0.01 µM (active),0.0156 µM (active),
Cc1nc2c(n1Cc1ccc(Cl)cc1)C(=O)c1ccccc1C2=O,5.47 µM (inactive),9.42 µM (inactive),4.18 µM (inactive),,,11.7 µM (inactive),36.4 µM (inactive),8.05 µM (inactive),
COc1cccc(NC(=O)/C(Cc2nc3ccccc3nc2C)=N/NC(=O)C[n+]2ccccc2)c1,> 100 µM (inactive),> 100 µM (inactive),> 100 µM (inactive),> 100 µM (inactive),> 100 µM (inactive),> 100 µM (inactive),> 100 µM (inactive),> 100 µM (inactive),
CC(C)=CC(=O)N(C)C1C2CN3CCC(O2)C13 (configuration not stated),> 100 µM (inactive),> 100 µM (inactive),> 100 µM (inactive),> 100 µM (inactive),> 100 µM (inactive),> 100 µM (inactive),> 100 µM (inactive),> 100 µM (inactive),
O=C1C=CC(=O)c2cc(Sc3ccccc3)c(=O)ccc21,7.43 µM (inactive),20 µM (inactive),13.6 µM (inactive),17.9 µM (inactive),18.8 µM (inactive),16.6 µM (inactive),,20.2 µM (inactive),21.7 µM (inactive)
Cn1c(=O)nc2n(-c3ccc(Cl)cc3)c(-c3ccccc3)c(-c3ccccc3)nc-2c1=O,27.7 µM (inactive),49.2 µM (inactive),34 µM (inactive),57.9 µM (inactive),28.1 µM (inactive),,12.9 µM (inactive),30.2 µM (inactive),28.3 µM (inactive)
CN(C)CCC(/C=C/c1ccccc1)=N\Nc1ccc(Cl)cc1,2.84 µM (inactive),6.07 µM (inactive),2.88 µM (inactive),4.69 µM (inactive),2.4 µM (inactive),6.78 µM (inactive),,1.56 µM (inactive),
Cc1ccc(S(=O)(=O)OCC23CCC(CC2)C2CC23)cc1 (configuration not stated),68.2 µM (inactive),,74.1 µM (inactive),> 100 µM (inactive),30.5 µM (inactive),43.2 µM (inactive),,56.5 µM (inactive),73.5 µM (inactive)
O=[N+]([O-])c1ccc2nc(/C(=N/Nc3ccccc3)C(O)c3ccc(Cl)cc3Cl)c(O)nc2c1 (configuration not stated),,> 100 µM (inactive),> 100 µM (inactive),> 100 µM (inactive),8.65 µM (inactive),> 100 µM (inactive),> 100 µM (inactive),> 100 µM (inactive),50.4 µM (inactive)
CCc1cccc(C)c1NC(=O)CC1C(=O)Nc2ccccc2[S+]1[O-] (configuration not stated),66.1 µM (inactive),45.2 µM (inactive),47.6 µM (inactive),,,,46.5 µM (inactive),30.5 µM (inactive),
COc1cc2c(cc1O)CN1CCC23C=C[C@@H](O)CC13 (some centres not stated),51.3 µM (inactive),> 100 µM (inactive),63 µM (inactive),71 µM (inactive),54.5 µM (inactive),38.1 µM (inactive),,> 100 µM (inactive),
COC(=O)C1C=CCON2CCc3c(n(C)c4ccccc34)C12 (configuration not stated),> 100 µM (inactive),> 100 µM (inactive),> 100 µM (inactive),,> 100 µM (inactive),> 100 µM (inactive),42.1 µM (inactive),> 100 µM (inactive),> 100 µM (inactive)
O=C1C(c2ccc([N+](=O)[O-])cc2)=[N+]([O-])c2ccccc21,19.8 µM (inactive),22.5 µM (inactive),33.9 µM (inactive),< 0.01 µM (active),10.7 µM (inactive),17.2 µM (inactive),,,
S=C(N/N=C/c1ccco1)NC12CC3CC(CC(C3)C1)C2,52.2 µM (inactive),> 100 µM (inactive),> 100 µM (inactive),> 100 µM (inactive),37.3 µM (inactive),> 100 µM (inactive),> 100 µM (inactive),42.8 µM (inactive),
CNc1nnnn1C1OC(CO)C(O)C1O (configuration not stated),> 100 µM (inactive),> 100 µM (inactive),> 100 µM (inactive),,> 100 µM (inactive),> 100 µM (inactive),14.2 µM (inactive),> 100 µM (inactive),> 100 µM (inactive)
C=C1C(C)C2C(Cc3ccccc3)NC(=O)C23C(OC(C)=O)/C=C/C(C)(O)CC(C)C/C=C/C3C1O (configuration not stated),,0.0454 µM (active),0.0796 µM (active),0.0324 µM (active),8.57 µM (inactive),49.1 µM (inactive),0.973 µM (active),0.112 µM (active),
O=C(O)C1=C(C(=O)Nc2ccc(NC(=O)C3=C(C(=O)O)C4C=CC3C4)cc2)C2C=CC1C2,> 100 µM (inactive),> 100 µM (inactive),> 100 µM (inactive),> 100 µM (inactive),> 100 µM (inactive),> 100 µM (inactive),> 100 µM (inactive),> 100 µM (inactive),
CCCCOC(=O)NC(=O)c1cn(C2CCCCC2)c(=O)[nH]c1=O,29 µM (inactive),36.6 µM (inactive),36.9 µM (inactive),19.4 µM (inactive),39.8 µM (inactive),71.4 µM (inactive),54.7 µM (inactive),76 µM (inactive),
CCOC(OC1=C(C#N)CCCC1)C(C)[Se]c1ccccc1 (configuration not stated),22.7 µM (inactive),> 100 µM (inactive),36.2 µM (inactive),38.5 µM (inactive),4.29 µM (inactive),29.2 µM (inactive),23.6 µM (inactive),62.7 µM (inactive),
COc1ccc(-c2cc(=O)c3c(O)c(O)c(OC)cc3o2)cc1O,> 100 µM (inactive),,> 100 µM (inactive),> 100 µM (inactive),,> 100 µM (inactive),> 100 µM (inactive),> 100 µM (inactive),92 µM (inactive)
COc1cc2c(c(OC)c1OC)C(=O)NCCC2,> 100 µM (inactive),> 100 µM (inactive),> 100 µM (inactive),> 100 µM (inactive),> 100 µM (inactive),> 100 µM (inactive),> 100 µM (inactive),> 100 µM (inactive),
COC(=O)C(CCCN1C(=O)c2ccccc2C1=O)C(=O)OC,> 100 µM (inactive),> 100 µM (inactive),> 100 µM (inactive),> 100 µM (inactive),> 100 µM (inactive),> 100 µM (inactive),> 100 µM (inactive),> 100 µM (inactive),
